Data on eight molecules can be found in ChEMBL document CHEMBL4359915, “Design, synthesis and biological evaluation of novel diazaspiro[4.5]decan-1-one derivatives as potential chitin synthase inhibitors and antifungal agents” (Eur J Med Chem, 2019).

≈ marks a conversion by molar mass, not a printed value.

Assay [1] concerns Staphylococcus aureus. Put plainly: Antibacterial activity against methicillin-resistant Staphylococcus aureus N315 assessed as growth inhibition measured after 24 hrs by two-fold broth dilution method. In kind it is functional. Particulars: N315, 24 h. For orientation: Dilution methods test growth across graded concentrations, often in twofold steps.
The subject of assay [2] is Aspergillus fumigatus. Description: Antifungal activity against Aspergillus fumigatus GIMCC 3.19 assessed as growth inhibition measured after 24 hrs by two-fold broth dilution method. In kind it is functional. Particulars: GIMCC 3.19, 24 h.
Assay [3] has as its system Bacillus spizizenii. Description: Antibacterial activity against Bacillus subtilis ATCC 6633 assessed as growth inhibition measured after 24 hrs by two-fold broth dilution method. The assay is classed as functional. The note with it: ATCC 6633, 24 h.
Assay [4] deals with Pseudomonas aeruginosa. Description: Antibacterial activity against Pseudomonas aeruginosa ATCC 9027 assessed as growth inhibition measured after 24 hrs by two-fold broth dilution method. The assay is classed as functional. The note with it: ATCC 9027, 24 h.
For assay [5], the system named is Candida albicans. Put plainly: Antifungal activity against Candida albicans ATCC 90023 assessed as growth inhibition measured after 24 hrs by two-fold broth dilution method. In kind it is functional. Particulars: ATCC 90023, 24 h.
Assay [6] relates to Candida tropicalis. Put plainly: Inhibition of Candida tropicalis ATCC 750 chitin synthase at 300 ug/ml using UDP-GlcNAc as substrate relative to control.
Assay [7] has as its system Cryptococcus neoformans. Description: Antifungal activity against Cryptococcus neoformans ATCC 32719 assessed as growth inhibition measured after 24 hrs by two-fold broth dilution method. The assay is classed as functional. The note with it: ATCC 32719, 24 h.
Assay [8] in a line: Inhibition of Candida tropicalis ATCC 750 chitin synthase using UDP-GlcNAc as substrate.
Assay [9] concerns Escherichia coli. Description: Antibacterial activity against Escherichia coli JM 109 assessed as growth inhibition measured after 24 hrs by two-fold broth dilution method. Particulars: JM 109, 24 h. In kind it is functional.
Assay [10] has as its system Candida albicans. Description: Antifungal activity against Candida albicans ATCC 76615 assessed as growth inhibition measured after 24 hrs by two-fold broth dilution method. In kind it is functional. Particulars: ATCC 76615, 24 h.
For assay [11], the system named is Aspergillus flavus. Description: Antifungal activity against Aspergillus flavus ATCC 16870 assessed as growth inhibition measured after 24 hrs by two-fold broth dilution method. The assay is classed as functional. The note with it: ATCC 16870, 24 h.
Assay [12] relates to Staphylococcus aureus. Description: Antibacterial activity against Staphylococcus aureus ATCC 25923 assessed as growth inhibition measured after 24 hrs by two-fold broth dilution method. The assay is classed as functional. Particulars: ATCC 25923, 24 h.
In assay [13] the test system is Proteus vulgaris. Description: Antibacterial activity against Bacillus proteus ATCC 8427 assessed as growth inhibition measured after 24 hrs by two-fold broth dilution method. In kind it is functional. The note with it: ATCC 8427, 24 h.

As a reminder, the MIC is the least concentration at which growth counts as inhibited. As a reminder, the inhibition is the change of the read-out against control, counted positive when it falls. The term IC50 denotes the midpoint of a concentration-inhibition curve. Read a low IC50 as inhibition by little substance. `O=C(Nc1ccccc1Cl)[C@H](O)[C@@H](O)C(=O)N1CCC2(CCNC2=O)CC1`: the MIC was 320 µM (≈ 127 µg/mL) in assay [1]; 320 µM (≈ 127 µg/mL) in [2]; 650 µM (≈ 257 µg/mL) in assay [3]; 320 µM (≈ 127 µg/mL) in [4]; 1290 µM (≈ 511 µg/mL) in assay [5]; 320 µM (≈ 127 µg/mL) in assay [7]. Further, the MIC in assay [9] worked out at 320 µM (≈ 127 µg/mL); in [10], 1290 µM (≈ 511 µg/mL); in [11], 1290 µM (≈ 511 µg/mL); in [12], 160 µM (≈ 63.3 µg/mL); in [13], 160 µM (≈ 63.3 µg/mL). Also, the inhibition in [6] is 85.5%. Moreover, the IC50 in assay [8] came out at 140 µM.
Regarding `Cc1ccc(NC(=O)[C@H](O)[C@@H](O)C(=O)N2CCC3(CCNC3=O)CC2)cc1`, the MIC in [1] is 340 µM (≈ 128 µg/mL); in [2], 680 µM (≈ 255 µg/mL); in assay [3] it was 680 µM (≈ 255 µg/mL); in [4], 170 µM (≈ 63.8 µg/mL); in [5], 680 µM (≈ 255 µg/mL); in [7], 340 µM (≈ 128 µg/mL). In addition, the MIC was 340 µM (≈ 128 µg/mL) in assay [9]; 340 µM (≈ 128 µg/mL) in [10]; 170 µM (≈ 63.8 µg/mL) in assay [11]; 170 µM (≈ 63.8 µg/mL) in assay [12]; 680 µM (≈ 255 µg/mL) in [13]. The molecule further gave an inhibition in assay [6] of 48.7%.
With `C[C@H]1COc2c(N3CCN(C)CC3)c(F)cc3c(=O)c(C(=O)O)cn1c23` [LEVOFLOXACIN], the MIC in assay [1] was found to be 11 µM (≈ 3.98 µg/mL); in assay [3], 11 µM (≈ 3.98 µg/mL); in assay [4], 3 µM (≈ 1.08 µg/mL); in assay [9], 11 µM (≈ 3.98 µg/mL); in assay [12] it was 22 µM (≈ 7.95 µg/mL); in assay [13], 5 µM (≈ 1.81 µg/mL).
For `NC(=O)OC[C@H](O)[C@@H](O)[C@H](N)C(=O)N[C@H](C(=O)O)[C@H]1O[C@@H](n2cc(CO)c(=O)[nH]c2=O)[C@H](O)[C@@H]1O` [POLYOXIN B], the MIC in assay [2] came out at 32 µM (≈ 16.2 µg/mL); in [5], 129 µM (≈ 65.5 µg/mL); in [7], 64 µM (≈ 32.5 µg/mL); in assay [10], 32 µM (≈ 16.2 µg/mL); in assay [11], 32 µM (≈ 16.2 µg/mL). In addition, the inhibition in [6] is 85%. Besides, in assay [8], the IC50 was 80 µM.
`Cc1ccccc1NC(=O)[C@H](O)[C@@H](O)C(=O)N1CCC2(CCNC2=O)CC1`: the MIC in assay [1] is 680 µM (≈ 255 µg/mL); in assay [2], 340 µM (≈ 128 µg/mL); in assay [3] it was 340 µM (≈ 128 µg/mL); in assay [4] it was 340 µM (≈ 128 µg/mL); in [5] it was 170 µM (≈ 63.8 µg/mL); in assay [7], 680 µM (≈ 255 µg/mL). The MIC in assay [9] came out at 680 µM (≈ 255 µg/mL); in [10], 1360 µM (≈ 511 µg/mL); in assay [11], 1360 µM (≈ 511 µg/mL); in [12], 680 µM (≈ 255 µg/mL); in assay [13], 680 µM (≈ 255 µg/mL). In [6], this molecule returned an inhibition of 49.8%.
`O=C(Nc1ccc([N+](=O)[O-])cc1)[C@H](O)[C@@H](O)C(=O)N1CCC2(CCNC2=O)CC1`: the MIC came to 630 µM (≈ 256 µg/mL) in assay [1]; 310 µM (≈ 126 µg/mL) in assay [2]; 1260 µM (≈ 512 µg/mL) in assay [3]; 630 µM (≈ 256 µg/mL) in [4]; 1260 µM (≈ 512 µg/mL) in assay [5]; 1260 µM (≈ 512 µg/mL) in assay [7]. The MIC in assay [9] is 310 µM (≈ 126 µg/mL); in [10] it was 1260 µM (≈ 512 µg/mL); in assay [11], 1260 µM (≈ 512 µg/mL); in assay [12] it was 160 µM (≈ 65 µg/mL); in assay [13], 310 µM (≈ 126 µg/mL). Also, in [6], the inhibition was 58.4%. The IC50 in assay [8] worked out at 390 µM.
Consider `COc1ccccc1NC(=O)[C@H](O)[C@@H](O)C(=O)N1CCC2(CCNC2=O)CC1`, for which the MIC in assay [1] was found to be 330 µM (≈ 129 µg/mL); in assay [2] it was 330 µM (≈ 129 µg/mL); in assay [3], 650 µM (≈ 254 µg/mL); in assay [4] it was 650 µM (≈ 254 µg/mL); in assay [5] it was 40 µM (≈ 15.7 µg/mL); in assay [7] it was 330 µM (≈ 129 µg/mL). Also, the MIC in [9] was determined as 650 µM (≈ 254 µg/mL); in [10], 650 µM (≈ 254 µg/mL); in [11], 650 µM (≈ 254 µg/mL); in assay [12] it was 1310 µM (≈ 513 µg/mL); in assay [13], 330 µM (≈ 129 µg/mL). In [6], this molecule came in with an inhibition of 20.4%.
With `COc1cccc(NC(=O)[C@H](O)[C@@H](O)C(=O)N2CCC3(CCNC3=O)CC2)c1`, the MIC in assay [1] worked out at 650 µM (≈ 254 µg/mL); in assay [2], 330 µM (≈ 129 µg/mL); in [3] it was 330 µM (≈ 129 µg/mL); in [4], 650 µM (≈ 254 µg/mL); in assay [5], 650 µM (≈ 254 µg/mL); in assay [7], 330 µM (≈ 129 µg/mL). Further, the minimum inhibitory concentration (MIC) in [9] was 650 µM (≈ 254 µg/mL); in [10], 160 µM (≈ 62.6 µg/mL); in assay [11], 650 µM (≈ 254 µg/mL); in assay [12], 650 µM (≈ 254 µg/mL); in assay [13], 650 µM (≈ 254 µg/mL). This molecule showed an inhibition in [6] of 47.5%.
